In patent US11331369B2, “Endoparasitic depsipeptides” (Zoetis Services LLC, priority 2017, dated 2022):

Legend:
[1] = system: microfilariae of Dirofilaria immitis; experiment: Dirofilaria immitis, Microfilaria (DiMF) In vitro Assay; type: cell-based; settings: 72 h, read-out: DiMF Minimum Effective Dose (MED), approximately 72 hours incubation, microfilariae assessed for survival or paralysis
[2] = system: third stage larvae of Haemonchus contortus; experiment: Haemonchus contortus L3 (HcL3) Assay; type: cell-based; settings: 96 h, read-out: HcL3 Minimum Effective Dose (MED)

| Structure (SMILES) | minimal effective concentration [1] | minimal effective concentration [2] |
| --- | --- | --- |
| CC(C)C[C@H]1C(=O)O[C@H](Cc2ccc(Cn3ccnn3)cc2)C(=O)N(C)[C@@H](CC(C)C)C(=O)O[C@H](C)C(=O)N(C)[C@@H](CC(C)C)C(=O)O[C@H](Cc2ccc(Cn3ccnn3)cc2)C(=O)N(C)[C@@H](CC(C)C)C(=O)O[C@H](C)C(=O)N1C [Example 9-6, (3S,6R,9S,12R,15S,18R,21S,24R)-6,18-bis(4-((1H-1,2,3-triazol-1-yl)methyl)benzyl)-3,9,15,21-tetraisobutyl-4,10,12,16,22,24-hexamethyl-1,7,13,19-tetraoxa-4,10,16,22-tetraazacyclotetracosan-2,5,8,11,14,17,20,23-octaone] | 0.001 to 0.01 µM | 1 to 10 µM |
| CC(C)C[C@H]1C(=O)O[C@H](Cc2ccc(CN3C(=O)CCC3=O)cc2)C(=O)N(C)[C@@H](CC(C)C)C(=O)O[C@H](C)C(=O)N(C)[C@@H](CC(C)C)C(=O)O[C@H](Cc2ccc(CN3C(=O)CCC3=O)cc2)C(=O)N(C)[C@@H](CC(C)C)C(=O)O[C@H](C)C(=O)N1C [Example 9-11, (3S,6R,9S,12R,15S,18R,21S,24R)-6,18-bis(4-((2,5-dioxopyrrolidin-1-yl)methyl)benzyl)-3,9,15,21-tetraisobutyl-4,10,12,16,22,24-hexamethyl-1,7,13,19-tetraoxa-4,10,16,22-tetraazacyclotetracosan-2,5,8,11,14,17,20,23-octaone] | 0.001 to 0.01 µM | 1 to 10 µM |
| CC(C)C[C@H]1C(=O)O[C@H](Cc2ccc(Cn3ccccc3=O)cc2)C(=O)N(C)[C@@H](CC(C)C)C(=O)O[C@H](C)C(=O)N(C)[C@@H](CC(C)C)C(=O)O[C@H](Cc2ccc(Cn3ccccc3=O)cc2)C(=O)N(C)[C@@H](CC(C)C)C(=O)O[C@H](C)C(=O)N1C [Example 9-28, (3S,6R,9S,12R,15S,18R,21S,24R)-3,9,15,21-tetraisobutyl-4,6,10,16,18,22-hexamethyl-12,24-bis(4-((2-oxopyridin-1 (2H)-yl)methyl)benzyl)-1,7,13,19-tetraoxa-4,10,16,22-tetraazacyclotetracosan-2,5,8,11,14,17,20,23-octaone] | 0.001 to 0.01 µM | 1 to 10 µM |
| CC(C)C[C@H]1C(=O)O[C@H](Cc2ccc(Cn3ncnc3-c3ccccc3)cc2)C(=O)N(C)[C@@H](CC(C)C)C(=O)O[C@H](C)C(=O)N(C)[C@@H](CC(C)C)C(=O)O[C@H](Cc2ccc(Cn3ncnc3-c3ccccc3)cc2)C(=O)N(C)[C@@H](CC(C)C)C(=O)O[C@H](C)C(=O)N1C [Example 9-34, (3S,6R,9S,12R,15S,18R,21S,24R)-3,9,15,21-tetraisobutyl-4,6,10,16,18,22-hexamethyl-12,24-bis(4-((5-phenyl-1H-1,2,4-triazol-1-yl)methyl)benzyl)-1,7,13,19-tetraoxa-4,10,16,22-tetraazacyclotetracosan-2,5,8,11,14,17,20,23-octaone] | 0.001 to 0.01 µM | 1 to 10 µM |
| CC(C)C[C@H]1C(=O)O[C@H](Cc2ccc(Cn3cc4c(n3)CCOC4)cc2)C(=O)N(C)[C@@H](CC(C)C)C(=O)O[C@H](C)C(=O)N(C)[C@@H](CC(C)C)C(=O)O[C@H](Cc2ccc(Cn3cc4c(n3)CCOC4)cc2)C(=O)N(C)[C@@H](CC(C)C)C(=O)O[C@H](C)C(=O)N1C [Example 9-41, (3S,6R,9S,12R,15S,18R,21S,24R)-6,18-bis(4-((6,7-dihydropyrano[4,3-c]pyrazol-2(4H)-yl)methyl)benzyl)-3,9,15,21-tetraisobutyl-4,10,12,16,22,24-hexamethyl-1,7,13,19-tetraoxa-4,10,16,22-tetraazacyclotetracosan-2,5,8,11,14,17,20,23-octaone] | 0.001 to 0.01 µM | 1 to 10 µM |
| Cc1nc(C2CC2)n(Cc2ccc(C[C@H]3OC(=O)[C@H](CC(C)C)N(C)C(=O)[C@@H](C)OC(=O)[C@H](CC(C)C)N(C)C(=O)[C@@H](Cc4ccc(Cn5nc(C)nc5C5CC5)cc4)OC(=O)[C@H](CC(C)C)N(C)C(=O)[C@@H](C)OC(=O)[C@H](CC(C)C)N(C)C3=O)cc2)n1 [Example 9-57, (3S,6R,9S,12R,15S,18R,21S,24R)-6,18-bis(4-((5-cyclopropyl-3-methyl-1H-1,2,4-triazol-1-yl)methyl)benzyl)-3,9,15,21-tetraisobutyl-4,10,12,16,22,24-hexamethyl-1,7,13,19-tetraoxa-4,10,16,22-tetraazacyclotetracosan-2,5,8,11,14,17,20,23-octaone] | 0.01 to 0.1 µM | 1 to 10 µM |
| CCc1nc(C)nn1Cc1ccc(C[C@H]2OC(=O)[C@H](CC(C)C)N(C)C(=O)[C@@H](C)OC(=O)[C@H](CC(C)C)N(C)C(=O)[C@@H](Cc3ccc(Cn4nc(C)nc4CC)cc3)OC(=O)[C@H](CC(C)C)N(C)C(=O)[C@@H](C)OC(=O)[C@H](CC(C)C)N(C)C2=O)cc1 [Example 9-59, (3S,6R,9S,12R,15S,18R,21S,24R)-6,18-bis(4-((5-ethyl-3-methyl-1H-1,2,4-triazol-1-yl)methyl)benzyl)-3,9,15,21-tetraisobutyl-4,10,12,16,22,24-hexamethyl-1,7,13,19-tetraoxa-4,10,16,22-tetraazacyclotetracosan-2,5,8,11,14,17,20,23-octaone] | 0.01 to 0.1 µM | 1 to 10 µM |
| CC(C)C[C@H]1C(=O)O[C@H](C)C(=O)N(C)[C@@H](CC(C)C)C(=O)O[C@H](Cc2ccccc2)C(=O)N(C)[C@@H](CC(C)C)C(=O)O[C@H](C)C(=O)N(C)[C@@H](CC(C)C)C(=O)O[C@@H](Cc2ccc(CN3CCC(F)(F)CC3)cc2)C(=O)N1C [Example 10-3, (3S,6R,9S,12R,15S,18S,21S,24R)-6-benzyl-18-(4-((4,4-difluoropiperidin-1-yl)methyl)benzyl)-3,9,15,21-tetraisobutyl-4,10,12,16,22,24-hexamethyl-1,7,13,19-tetraoxa-4,10,16,22-tetraazacyclotetracosan-2,5,8,11,14,17,20,23-octaone] | 0.01 to 0.1 µM | 1 to 10 µM |
| CC(C)C[C@H]1C(=O)O[C@H](Cc2ccc(Cn3ccccc3=O)cc2)C(=O)N(C)[C@@H](CC(C)C)C(=O)O[C@H](C)C(=O)N(C)[C@@H](CC(C)C)C(=O)O[C@H](Cc2ccccc2)C(=O)N(C)[C@@H](CC(C)C)C(=O)O[C@H](C)C(=O)N1C [Example 10-17, (3S,6R,9S,12R,15S,18R,21S,24R)-6-benzyl-3,9,15,21-tetraisobutyl-4,10,12,16,22,24-hexamethyl-18-(4-((2-oxopyridin-1 (2H)-yl)methyl)benzyl)-1,7,13,19-tetraoxa-4,10,16,22-tetraazacyclotetracosan-2,5,8,11,14,17,20,23-octaone] | 0.001 to 0.01 µM | 1 to 10 µM |
| CC(C)C[C@H]1C(=O)O[C@H](Cc2ccc(CN3CCOC3=O)cc2)C(=O)N(C)[C@@H](CC(C)C)C(=O)O[C@H](C)C(=O)N(C)[C@@H](CC(C)C)C(=O)O[C@H](Cc2ccccc2)C(=O)N(C)[C@@H](CC(C)C)C(=O)O[C@H](C)C(=O)N1C [Example 10-18, (3S,6R,9S,12R,15S,18R,21S,24R)-6-benzyl-3,9,15,21-tetraisobutyl-4,10,12,16,22,24-hexamethyl-18-(4-((2-oxooxazolidin-3-yl)methyl)benzyl)-1,7,13,19-tetraoxa-4,10,16,22-tetraazacyclotetracosan-2,5,8,11,14,17,20,23-octaone] | 0.01 to 0.1 µM | 1 to 10 µM |
